Assay results reported in patent US12559506B2, “Indazole based compounds and associated methods of use” (Arvinas Operations, Inc., priority 2021, dated 2026).
Read-outs that look alike come from different tables or passages of the source.

Assays:
G2019S LRRK2 = target: T1, G2019S LRRK2 (Homo sapiens, UniProt Q5S007, G2019S); test: LRRK2 degradation assay, HiBit-tagged G2019S LRRK2 expressed from plasmid in HEK293 cells (Nano-Glo Dual-Luciferase); type: cell-based; settings: 24 hours
T1 construct: expressed in transfected cells; host or cells: HEK293 (ATCC CRL-1573), transient transfection, mammalian expression vector with ubiquitin promoter
Outline: (§1)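 HEK293 cells co-transfected with C-terminal HiBiT-tagged LRRK2 (WT or G2019S, ubiquitin promoter) and firefly luciferase, then dosed 24 h at 37 °C. HiBiT/firefly ratio normalized to DMSO median; DC50 and Dmax from per-plate curve fits, six replicates over two days.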

wildtype LRRK2 = target: T2, wildtype LRRK2 (Homo sapiens, UniProt Q5S007); test: LRRK2 degradation assay, HiBit-tagged wildtype LRRK2 expressed from plasmid in HEK293 cells (Nano-Glo Dual-Luciferase); type: cell-based; settings: 24 hours; for DC50: read-out: *WT DC50; for Dmax: read-out: **WT Dmax (%)
T2 construct: expressed in transfected cells; host or cells: HEK293 (ATCC CRL-1573), transient transfection, mammalian expression vector with ubiquitin promoter
Outline: as §1

[1] = HiBit-tagged G2019S LRRK2, HEK293 cells
[2] = HiBit-tagged wildtype LRRK2, HEK293 cells
[3] = HiBit-tagged G2019S LRRK2 in HEK293 cells
[4] = HiBit-tagged wildtype LRRK2 in HEK293 cells

T1 sequence (Q5S007 whole entry G2019S): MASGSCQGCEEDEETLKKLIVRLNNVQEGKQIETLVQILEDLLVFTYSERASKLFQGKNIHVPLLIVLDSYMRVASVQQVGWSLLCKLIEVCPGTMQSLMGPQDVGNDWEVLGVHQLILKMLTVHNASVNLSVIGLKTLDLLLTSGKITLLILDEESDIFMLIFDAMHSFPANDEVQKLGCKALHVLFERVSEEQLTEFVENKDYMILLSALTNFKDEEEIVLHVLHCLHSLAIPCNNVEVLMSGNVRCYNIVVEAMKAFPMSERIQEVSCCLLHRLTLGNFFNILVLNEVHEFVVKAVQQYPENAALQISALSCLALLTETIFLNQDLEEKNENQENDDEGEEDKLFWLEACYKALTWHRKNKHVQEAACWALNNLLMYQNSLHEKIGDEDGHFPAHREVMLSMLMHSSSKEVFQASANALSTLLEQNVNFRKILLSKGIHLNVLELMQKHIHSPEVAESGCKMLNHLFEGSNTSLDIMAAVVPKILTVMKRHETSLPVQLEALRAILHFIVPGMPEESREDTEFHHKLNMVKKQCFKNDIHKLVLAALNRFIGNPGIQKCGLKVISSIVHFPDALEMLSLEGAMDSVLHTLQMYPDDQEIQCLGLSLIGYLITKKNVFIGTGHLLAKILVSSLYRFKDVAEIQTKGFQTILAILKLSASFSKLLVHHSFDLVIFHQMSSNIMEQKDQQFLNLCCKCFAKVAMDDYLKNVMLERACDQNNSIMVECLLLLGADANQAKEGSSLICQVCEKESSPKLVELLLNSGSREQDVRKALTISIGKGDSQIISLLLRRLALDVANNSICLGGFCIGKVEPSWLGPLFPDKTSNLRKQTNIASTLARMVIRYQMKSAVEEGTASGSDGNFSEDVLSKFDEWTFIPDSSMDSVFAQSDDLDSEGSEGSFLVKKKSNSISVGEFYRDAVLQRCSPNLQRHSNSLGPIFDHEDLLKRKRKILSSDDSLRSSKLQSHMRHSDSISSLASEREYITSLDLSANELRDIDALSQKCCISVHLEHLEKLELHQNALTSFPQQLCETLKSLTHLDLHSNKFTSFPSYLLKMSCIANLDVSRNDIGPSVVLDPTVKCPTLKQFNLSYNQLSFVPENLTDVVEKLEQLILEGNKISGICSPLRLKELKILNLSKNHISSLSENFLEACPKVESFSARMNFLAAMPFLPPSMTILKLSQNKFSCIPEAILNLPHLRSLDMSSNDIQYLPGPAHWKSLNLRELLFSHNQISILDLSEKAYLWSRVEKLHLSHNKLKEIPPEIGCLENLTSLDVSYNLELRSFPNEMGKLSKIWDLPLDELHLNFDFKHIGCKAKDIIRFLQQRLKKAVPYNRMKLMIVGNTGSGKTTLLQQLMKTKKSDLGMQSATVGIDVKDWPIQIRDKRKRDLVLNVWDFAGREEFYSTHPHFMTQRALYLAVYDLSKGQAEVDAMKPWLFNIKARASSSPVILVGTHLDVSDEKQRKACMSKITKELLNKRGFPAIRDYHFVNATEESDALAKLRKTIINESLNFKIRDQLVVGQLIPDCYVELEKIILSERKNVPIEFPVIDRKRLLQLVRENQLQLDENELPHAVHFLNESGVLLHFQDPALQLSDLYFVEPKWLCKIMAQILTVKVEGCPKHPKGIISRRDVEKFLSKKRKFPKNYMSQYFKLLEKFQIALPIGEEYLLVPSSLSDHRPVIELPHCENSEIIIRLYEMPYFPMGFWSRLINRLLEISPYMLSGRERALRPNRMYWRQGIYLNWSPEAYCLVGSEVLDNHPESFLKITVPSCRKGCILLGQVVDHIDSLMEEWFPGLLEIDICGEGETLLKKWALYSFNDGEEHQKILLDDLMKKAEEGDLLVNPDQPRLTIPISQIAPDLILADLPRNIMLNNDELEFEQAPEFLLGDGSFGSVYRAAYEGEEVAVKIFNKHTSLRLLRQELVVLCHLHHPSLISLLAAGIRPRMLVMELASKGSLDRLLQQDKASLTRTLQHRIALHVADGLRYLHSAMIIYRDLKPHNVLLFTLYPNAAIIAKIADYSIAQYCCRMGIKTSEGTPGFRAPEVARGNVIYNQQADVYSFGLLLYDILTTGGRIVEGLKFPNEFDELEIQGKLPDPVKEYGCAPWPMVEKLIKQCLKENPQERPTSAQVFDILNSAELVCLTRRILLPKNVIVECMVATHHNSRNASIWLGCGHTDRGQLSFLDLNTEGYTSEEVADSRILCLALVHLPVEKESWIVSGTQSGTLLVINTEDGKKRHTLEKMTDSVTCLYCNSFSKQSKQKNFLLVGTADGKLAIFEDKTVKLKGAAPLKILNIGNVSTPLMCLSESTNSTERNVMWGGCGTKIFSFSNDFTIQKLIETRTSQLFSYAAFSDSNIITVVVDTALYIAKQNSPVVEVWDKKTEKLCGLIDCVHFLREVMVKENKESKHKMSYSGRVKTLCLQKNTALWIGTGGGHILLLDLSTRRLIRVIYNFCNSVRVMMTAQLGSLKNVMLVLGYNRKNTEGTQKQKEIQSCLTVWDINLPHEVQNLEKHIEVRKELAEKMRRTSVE
T2 sequence (Q5S007 whole entry): as the sequence (Q5S007 whole entry G2019S) above, with S2019G counted along it

DC50 (G2019S LRRK2; [1]) [nM] | DC50 (wildtype LRRK2; [2]) [nM] | Dmax (G2019S LRRK2; [1]) [%] | Dmax (wildtype LRRK2; [2]) [%] | DC50 (G2019S LRRK2; [3]) [nM] | Dmax (G2019S LRRK2; [3]) [%] | Dmax (wildtype LRRK2; [4]) [%] | DC50 (wildtype LRRK2; [4]) [nM] | SMILES
≥ 100 | 50 to 100 | < 50 | < 50 | – | – | – | – | CC1(Oc2ccc3[nH]nc(-c4ccnc(N5CCC56CN(CC5CCN(CC7CCN(c8ccc9c(c8)C(=O)N(C8CCC(=O)NC8=O)C9=O)CC7)CC5)C6)c4)c3c2)CC1 (stereo not drawn) [Compound 162, 2-(2,6-dioxo-3-piperidyl)-5-[4-[[4-[[1-[4-[5-(1-methylcyclopropoxy)-1H-indazol-3-yl]-2-pyridyl]-1,6-diazaspiro[3.3]heptan-6-yl]methyl]-1-piperidyl]methyl]-1-piperidyl]isoindoline-1,3-dione]
– | – | – | – | 10 to 50 | 50 to 70 | < 50 | < 10 | CC1(Oc2ccc3[nH]nc(-c4cc(N5CCC(CN6CCN(CC7CCN(c8cc9c(cc8F)C(=O)N(C8CCC(=O)NC8=O)C9=O)CC7)CC6)CC5)ncn4)c3c2)CC1 (stereo not drawn) [Compound 107, 2-(2,6-dioxo-3-piperidyl)-5-fluoro-6-[4-[[4-[[1-[6-[5-(1-methylcyclopropoxy)-1H-indazol-3-yl]pyrimidin-4-yl]-4-piperidyl]methyl]piperazin-1-yl]methyl]-1-piperidyl]isoindoline-1,3-dione]
– | – | – | – | < 10 | ≥ 70 | ≥ 70 | < 10 | CC1(Oc2ccc3[nH]nc(-c4cc(N5CCC(CN=S6(=O)CCN(CC7CCN(c8ccc9c(c8)C(=O)N(C8CCC(=O)NC8=O)C9=O)CC7)CC6)CC5)ncn4)c3c2)CC1 (stereo not drawn) [Compound 63, 2-(2,6-dioxo-3-piperidyl)-5-[4-[[1-[[1-[6-[5-(1-methylcyclopropoxy)-1H-indazol-3-yl]pyrimidin-4-yl]-4-piperidyl]methylimino]-1-oxo-1,4-thiazinan-4-yl]methyl]-1-piperidyl]isoindoline-1,3-dione]
– | – | – | – | < 10 | < 50 | 50 to 70 | < 10 | CC1(Oc2ccc3[nH]nc(-c4cc(N5CCC(O[C@@H]6CCN(CC7CCN(c8ccc9c(c8)C(=O)N(C8CCC(=O)NC8=O)C9=O)CC7)C6)CC5)ncn4)c3c2)CC1 (stereo partly drawn) [Compound 116, 2-(2,6-dioxo-3-piperidyl)-5-[4-[[(3R)-3-[[1-[6-[5-(1-methylcyclopropoxy)-1H-indazol-3-yl]pyrimidin-4-yl]-4-piperidyl]oxy]pyrrolidin-1-yl]methyl]-1-piperidyl]isoindoline-1,3-dione]
– | – | – | – | < 10 | 50 to 70 | 50 to 70 | < 10 | CC1(Oc2ccc3[nH]nc(-c4cc(N5CCN(CC(F)(F)C6CCN(CC7CCN(c8ccc9c(c8)C(=O)N(C8CCC(=O)NC8=O)C9=O)CC7)CC6)CC5)ncn4)c3c2)CC1 (stereo not drawn) [Compound 53, 5-[4-[[4-[1,1-difluoro-2-[4-[6-[5-(1-methylcyclopropoxy)-1H-indazol-3-yl]pyrimidin-4-yl]piperazin-1-yl]ethyl]-1-piperidyl]methyl]-1-piperidyl]-2-(2,6-dioxo-3-piperidyl)isoindoline-1,3-dione]
< 10 | < 10 | < 50 | 50 to 70 | – | – | – | – | CC1(Oc2ccc3[nH]nc(-c4cc(N5CCC(CN6CC7(CCN7CC7CCN(c8ccc9c(c8)C(=O)N(C8CCC(=O)NC8=O)C9=O)CC7)C6)CC5)ncn4)c3c2)CC1 (stereo not drawn) [Compound 176, 2-(2,6-dioxo-3-piperidyl)-5-[4-[[6-[[1-[6-[5-(1-methylcyclopropoxy)-1H-indazol-3-yl]pyrimidin-4-yl]-4-piperidyl]methyl]-1,6-diazaspiro[3.3]heptan-1-yl]methyl]-1-piperidyl]isoindoline-1,3-dione]
– | – | – | – | ≥ 100 | – | – | ≥ 100 | CC1(Oc2ccc3[nH]nc(-c4cc(N5CCC(CN6CCN(CC7CCN(c8ccc9c(c8)C(=O)N(C8CCC(=O)NC8=O)C9=O)CC7)CC6)CC5)ccn4)c3c2)CC1 (stereo not drawn) [Compound 98, 2-(2,6-dioxo-3-piperidyl)-5-[4-[[4-[[1-[2-[5-(1-methylcyclopropoxy)-1H-indazol-3-yl]-4-pyridyl]-4-piperidyl]methyl]piperazin-1-yl]methyl]-1-piperidyl]isoindoline-1,3-dione]

Further lines, the molecule ahead of its results:

SMILES | DC50 (G2019S LRRK2; [1]) [nM] | DC50 (wildtype LRRK2; [2]) [nM] | Dmax (G2019S LRRK2; [1]) [%] | Dmax (wildtype LRRK2; [2]) [%] | DC50 (G2019S LRRK2; [3]) [nM] | Dmax (G2019S LRRK2; [3]) [%] | Dmax (wildtype LRRK2; [4]) [%] | DC50 (wildtype LRRK2; [4]) [nM]
CC1(Oc2ccc3n[nH]c(-c4cc(N5CCC(Cc6cccc(CC7CCN(c8ccc9c(c8)C(=O)N(C8CCC(=O)NC8=O)C9=O)CC7)c6)CC5)ncn4)c3c2)CC1 (stereo not drawn) [Compound 174, 2-(2,6-dioxo-3-piperidyl)-5-[4-[[3-[[1-[6-[5-(1-methylcyclopropoxy)-2H-indazol-3-yl]pyrimidin-4-yl]-4-piperidyl]methyl]phenyl]methyl]-1-piperidyl]isoindoline-1,3-dione] | ≥ 100 | ≥ 100 | – | – | – | – | – | –
CC1(Oc2ccc3[nH]nc(-c4ccnc(N5CCC(C(=O)N6CCC(CC7CCN(c8ccc9c(c8)C(=O)N(C8CCC(=O)NC8=O)C9=O)CC7)CC6)CC5)c4)c3c2)CC1 (stereo not drawn) [Compound 89, 2-(2,6-dioxopiperidin-3-yl)-5-(4-{[1-(1-{4-[5-(1-methylcyclopropoxy)-1H-indazol-3-yl]pyridin-2-yl}piperidine-4-carbonyl)piperidin-4-yl]methyl}piperidin-1-yl)-2,3-dihydro-1H-isoindole-1,3-dione] | – | – | – | – | 10 to 50 | < 50 | < 50 | 10 to 50
CC1(Oc2ccc3n[nH]c(-c4cc(N5CCN(Cc6ccc(CN7CCN(c8ccc9c(c8)C(=O)N(C8CCC(=O)NC8=O)C9=O)CC7)nn6)CC5)ncn4)c3c2)CC1 (stereo not drawn) [Compound 172, 2-(2,6-dioxo-3-piperidyl)-5-[4-[[6-[[4-[6-[5-(1-methylcyclopropoxy)-2H-indazol-3-yl]pyrimidin-4-yl]piperazin-1-yl]methyl]pyridazin-3-yl]methyl]piperazin-1-yl]isoindoline-1,3-dione] | < 10 | < 10 | 50 to 70 | 50 to 70 | – | – | – | –
C[C@H]1CN(c2cc(-c3n[nH]c4cc(F)c(OC5(C)CC5)cc34)ncn2)CCN1CC1CCN(CC2CCN(c3ccc4c(c3)C(=O)N(C3CCC(=O)NC3=O)C4=O)CC2)CC1 (stereo partly drawn) [Compound 71, 2-(2,6-dioxopiperidin-3-yl)-5-{4-[(4-{[(2S)-4-{6-[6-fluoro-5-(1-methylcyclopropoxy)-1H-indazol-3-yl]pyrimidin-4-yl}-2-methylpiperazin-1-yl]methyl}piperidin-1-yl)methyl]piperidin-1-yl}-2,3-dihydro-1H-isoindole-1,3-dione] | – | – | – | – | < 10 | < 50 | 50 to 70 | < 10
CC1(Oc2ccc3[nH]nc(-c4ccnc(N5CCC(C(=O)N6CCC(CN7CCN(c8ccc9c(c8)C(=O)N(C8CCC(=O)NC8=O)C9=O)CC7)CC6)CC5)c4)c3c2)CC1 (stereo not drawn) [Compound 87, 2-(2,6-dioxo-3-piperidyl)-5-[4-[[1-[1-[4-[5-(1-methylcyclopropoxy)-1H-indazol-3-yl]-2-pyridyl]piperidine-4-carbonyl]-4-piperidyl]methyl]piperazin-1-yl]isoindoline-1,3-dione] | – | – | – | – | < 10 | < 50 | < 50 | < 10
CC1(Oc2ccc3[nH]nc(-c4ccnc(N5CCC(CN6CCN(C(=O)C7CCN(c8ccc9c(c8)C(=O)N(C8CCC(=O)NC8=O)C9=O)CC7)CC6)CC5)c4)c3c2)CC1 (stereo not drawn) [Compound 95, 2-(2,6-dioxopiperidin-3-yl)-5-(4-{4-[(1-{4-[5-(1-methylcyclopropoxy)-1H-indazol-3-yl]pyridin-2-yl}piperidin-4-yl)methyl]piperazine-1-carbonyl}piperidin-1-yl)-2,3-dihydro-1H-isoindole-1,3-dione] | – | – | – | – | < 10 | 50 to 70 | 50 to 70 | < 10
CC1(Oc2ccc3[nH]nc(-c4ccnc(N5CCC(O[C@H]6C[C@H](OC7CCN(c8ccc9c(c8)C(=O)N(C8CCC(=O)NC8=O)C9=O)CC7)C6)CC5)c4)c3c2)CC1 (stereo partly drawn) [Compound 127, 2-(2,6-dioxo-3-piperidyl)-5-[4-[3-[[1-[4-[5-(1-methylcyclopropoxy)-1H-indazol-3-yl]-2-pyridyl]-4-piperidyl]oxy]cyclobutoxy]-1-piperidyl]isoindoline-1,3-dione] | – | – | – | – | 10 to 50 | < 50 | < 50 | 10 to 50
CC1(Oc2ccc3[nH]nc(-c4cc(N5CCN(CC6CCN(CCCCNc7cccc8c7CN(C7CCC(=O)NC7=O)C8=O)CC6)CC5)ncn4)c3c2)CC1 (stereo not drawn) [Compound 143, 3-[4-[4-[4-[[4-[6-[5-(1-methylcyclopropoxy)-1H-indazol-3-yl]pyrimidin-4-yl]piperazin-1-yl]methyl]-1-piperidyl]butylamino]-1-oxo-isoindolin-2-yl]piperidine-2,6-dione] | – | – | – | – | 10 to 50 | 50 to 70 | < 50 | 10 to 50
CC1(Oc2ccc3[nH]nc(-c4cc(N5C[C@@H]6[C@@H](CN7CCN(CC8CCN(c9ccc%10c(c9)C(=O)N(C9CCC(=O)NC9=O)C%10=O)CC8)CC7)[C@@H]6C5)ncn4)c3c2)CC1 (stereo partly drawn) [Compound 75, 2-(2,6-dioxopiperidin-3-yl)-5-{4-[(4-{[(1r,5s,6s)-3-{6-[5-(1-methylcyclopropoxy)-1H-indazol-3-yl]pyrimidin-4-yl}-3-azabicyclo[3.1.0]hexan-6-yl]methyl}piperazin-1-yl)methyl]piperidin-1-yl}-2,3-dihydro-1H-isoindole-1,3-dione] | – | – | – | – | < 10 | ≥ 70 | ≥ 70 | < 10
